Legend:
Assay in all cases: […]PPi release adenylation assay
Format in all cases: biochemical
Cal23Asn/Cal4 complex [1] = target: T1, Cal23Asn/Cal4 complex (Streptomyces calvus, UniProt A0A0N9M336); conditions: 0.2 mM amino acid, 0.15 mM ATP, 1 mM MgCl2, 25 °C, 3 h, 30 μM enzyme; most active of 20 proteinogenic amino acids
T1 construct: gene cal23; complete ORF, A-PCP didomain, N-terminal His6 tag; copurified with untagged MbtH-like protein Cal4; E. coli BL21(DE3) ΔybdZ; with MbtH-like protein

Cal22Thr [2] = target: T2, Cal22Thr (Streptomyces calvus, UniProt A0A0N9LS39); conditions: 0.2 mM amino acid, 0.15 mM ATP, 1 mM MgCl2, 25 °C, 3 h, 30 μM enzyme; most active of 20 proteinogenic amino acids
T2 construct: gene cal22; complete ORF, A-PCP didomain, N-terminal His6 tag; E. coli BL21(DE3) ΔybdZ, coexpressed with untagged Cal4 (Cal4 not copurified)
T2 sequence (A0A0N9LS39 entry or part of it): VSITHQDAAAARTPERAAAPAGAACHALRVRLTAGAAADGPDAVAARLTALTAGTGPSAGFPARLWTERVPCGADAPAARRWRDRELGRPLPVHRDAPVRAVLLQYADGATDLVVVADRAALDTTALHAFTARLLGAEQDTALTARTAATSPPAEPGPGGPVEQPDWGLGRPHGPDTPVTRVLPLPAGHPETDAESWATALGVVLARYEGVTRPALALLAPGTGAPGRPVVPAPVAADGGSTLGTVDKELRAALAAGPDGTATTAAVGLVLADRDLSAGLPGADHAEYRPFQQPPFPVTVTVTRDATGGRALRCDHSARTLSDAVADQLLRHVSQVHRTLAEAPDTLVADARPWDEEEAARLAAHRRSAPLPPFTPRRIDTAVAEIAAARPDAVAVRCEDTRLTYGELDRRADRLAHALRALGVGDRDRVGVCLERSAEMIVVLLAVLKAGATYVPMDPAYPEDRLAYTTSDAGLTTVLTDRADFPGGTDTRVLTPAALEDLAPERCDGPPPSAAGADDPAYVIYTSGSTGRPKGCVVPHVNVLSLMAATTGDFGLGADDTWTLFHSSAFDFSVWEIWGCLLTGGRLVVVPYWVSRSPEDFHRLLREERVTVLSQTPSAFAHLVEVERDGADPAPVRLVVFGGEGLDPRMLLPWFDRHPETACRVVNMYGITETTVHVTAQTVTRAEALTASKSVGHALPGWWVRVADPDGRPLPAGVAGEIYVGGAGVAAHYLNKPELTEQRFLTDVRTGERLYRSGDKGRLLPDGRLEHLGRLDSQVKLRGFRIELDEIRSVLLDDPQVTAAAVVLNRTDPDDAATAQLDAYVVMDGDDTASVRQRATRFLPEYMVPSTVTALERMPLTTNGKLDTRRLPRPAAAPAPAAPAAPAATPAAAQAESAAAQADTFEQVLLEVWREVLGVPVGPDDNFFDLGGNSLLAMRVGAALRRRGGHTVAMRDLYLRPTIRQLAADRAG

Cal23Asn/Cal4 complex [3] = target: T1, Cal23Asn/Cal4 complex; conditions: co-substrate asparagine 0.2 mM; 0.15 mM ATP, 1 mM MgCl2, 25 °C, 3 h; labelled compound
Cal22Thr [4] = target: T2, Cal22Thr; conditions: co-substrate threonine 0.2 mM; 0.15 mM ATP, 1 mM MgCl2, 25 °C, 3 h; labelled compound

T1 sequence (A0A0N9M336 entry or part of it): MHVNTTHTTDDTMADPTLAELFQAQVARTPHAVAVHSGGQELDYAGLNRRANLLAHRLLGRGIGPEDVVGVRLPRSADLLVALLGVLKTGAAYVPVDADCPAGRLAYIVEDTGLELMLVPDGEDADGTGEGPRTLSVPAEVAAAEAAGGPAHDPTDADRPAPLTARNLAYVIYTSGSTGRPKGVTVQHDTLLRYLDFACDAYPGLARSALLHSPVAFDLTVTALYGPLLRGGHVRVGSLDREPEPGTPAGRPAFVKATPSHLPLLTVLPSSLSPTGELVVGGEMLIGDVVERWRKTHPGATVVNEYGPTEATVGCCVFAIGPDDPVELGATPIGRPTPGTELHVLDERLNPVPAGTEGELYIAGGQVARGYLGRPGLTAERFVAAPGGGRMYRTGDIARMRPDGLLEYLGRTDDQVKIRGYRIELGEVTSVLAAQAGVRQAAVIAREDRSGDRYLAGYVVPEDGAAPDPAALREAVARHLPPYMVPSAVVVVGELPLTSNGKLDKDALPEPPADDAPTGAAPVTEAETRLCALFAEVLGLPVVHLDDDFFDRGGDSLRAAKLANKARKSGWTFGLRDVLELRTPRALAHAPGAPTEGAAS
T1 sequence (A0A0N9M601 entry or part of it, further chain): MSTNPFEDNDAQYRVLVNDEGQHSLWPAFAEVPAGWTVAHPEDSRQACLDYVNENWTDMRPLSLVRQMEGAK

In the case of `NC(=O)C[C@H](N)C(=O)O` [asparagine], the relative adenylation activity (Cal23Asn/Cal4 complex [1]) was “Cal23Asn/Cal4 complex was most active towards asparagine, the predicted substrate of the A‐domain”.
With `C[C@@H](O)[C@H](N)C(=O)O` [threonine] the relative adenylation activity (Cal22Thr [2]) was “Cal22Thr was observed to be most specific towards its predicted substrate threonine”.
In the case of `Nc1ncnc2c1ncn2[C@@H]1O[C@H](COP(=O)(O)OP(=O)(O)OP(=O)(O)O)[C@@H](O)[C@H]1O` [ATP], the “[33P]PPi release adenylation assay” value (Cal23Asn/Cal4 complex [3]) was “the reaction of ATP with an amino acid to form an amino acyl adenylate was measured” and the “[33P]PPi release adenylation assay” value (Cal22Thr [4]) was “the reaction of ATP with an amino acid to form an amino acyl adenylate was measured”.

From paper PMC7539972, “Role of Two Exceptional trans Adenylation Domains and MbtH‐like Proteins in the Biosynthesis of the Nonribosomal Peptide WS9324A from Streptomyces calvus ATCC 13382” (Chembiochem, 2020)
